Reference: patent publication US12129244B2, “Modulators of Mas-related G-protein receptor X2 and related products and methods” (Escient Pharmaceuticals, Inc., priority 2022, dated 2024)
pIC50: −log10 of the molar value.

Legend:
human MRGPRX2 = molecular target: T1, human MRGPRX2 (Homo sapiens, UniProt Q96LB1); assay: MRGPRX2 activity: IP-One HTRF antagonist assay in CHO cells versus Cortistatin-14; assay type: cell-based; conditions: CHO cells stably expressing human MRGPRX2; versus 0.3 uM Cortistatin-14 agonist; IP-1 HTRF
T1 construct: expressed in transfected cells
T1 sequence (Q96LB1 1-330): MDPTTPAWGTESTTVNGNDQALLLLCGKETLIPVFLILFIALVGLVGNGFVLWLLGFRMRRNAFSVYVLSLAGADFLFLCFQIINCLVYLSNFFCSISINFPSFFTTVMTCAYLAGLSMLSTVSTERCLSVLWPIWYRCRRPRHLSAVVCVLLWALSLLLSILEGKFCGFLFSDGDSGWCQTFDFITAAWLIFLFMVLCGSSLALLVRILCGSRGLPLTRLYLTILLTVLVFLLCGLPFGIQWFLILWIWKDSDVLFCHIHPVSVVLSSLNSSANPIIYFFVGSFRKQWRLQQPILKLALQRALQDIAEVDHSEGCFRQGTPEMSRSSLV
How it was run: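 CHO cells stably expressing human MRGPRX2 received compound as a 10-point curve (30 uM top, 1:3 dilutions) plus 0.3 μM Cortistatin-14 in LiCl buffer, pH 8. Incubation 1 h at 37 °C, then 1 h at room temperature. IP-1 accumulation read by HTRF; IC50 from ratio curves, reported as activity bins.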

Human LAD2 cells = assay: Mast Cell Beta-Hexosaminidase Release Assay; assay type: cell-based; conditions: 500 nM Cortistatin-14, read-out: MRGPRX2 Antagonist Activity
Protocol: Human LAD2 cells (NIH) were maintained in an incubator at 37° C. with 5% CO2 and cultured in StemPro-34 serum-free media (Gibco 10639011) supplemented with 2 mM L-glutamine, 100 U/ml penicillin, […] streptomycin and 100 ng/ml SCF (Invitrogen PEP0860), at a concentration of 2-5×10^5 cells/mL, with hemidepletion every 1-2 weeks.
Cells were transferred to SCF-Free medium at 2.5×10^5 cells/mL and kept in an incubator overnight. On the day of the assay, cells were washed twice in Assay Buffer (final concentrations 10 mM HEPES, 137 mM NaCl, 5.6 mM D-glucose, 2.7 mM KCl, 1 mM MgCl, 1.8 mM CalCl2, 0.4 mM Na2HPO4·7H2O, 0.04% BSA, pH=7.4) and plated in a 96-well v-bottom plate at 20,000 cells per well in 80 μL Assay Buffer. Antagonist compounds solubilized at 10 mM in DMSO were diluted in Assay Buffer to 10× final desired concentrations as a 10-point curve (10 μM final top concentration with 1:3 serial dilutions) and 10 μL added per well. Plates were then incubated for 1 hour at 37° C. Agonists were diluted in Assay Buffer to 10× desired concentrations and 10 μL of the appropriate agonist added to each well. The final concentration of Cortistatin-14 (Tocris 3374) used in antagonist assays was 500 nM. Final concentrations of DMSO were kept consistent across the plate. Plates were then incubated in a warm air oven for 30 minutes at 37° C., followed by centrifugation at 4° C. for 5 minutes at 450×g. 50 μL supernatant from each well was then transferred to a 96-well flat bottom plate containing 100 μL substrate solution per well (3.5 mg/mL p-Nitrophenyl-N-acetyl-β-D-glucosaminide (Sigma 487052) in Citrate Buffer containing a final concentration of 40 mM Citric Acid, 20 mM Na2HPO4·7H2O, pH=4.5). To the cell pellets left in the remaining assay buffer, 150 μL 0.1% Triton-X-100 was then added to each well, resuspended by pipetting up and down, and 50 μL cell lysates transferred to a second 96-well flat bottom plate containing 100 μL substrate solution per well. Plates containing transferred supernatant and cell lysates were then incubated in a warm air oven for 90 minutes at 37° C. After incubation, 50 μL of 400 mM Glycine buffer (pH 10.7) was added into each well and the plate was read on a Molecular Devices SpectraMax iD5 plate reader (absorbance at 405 nm with reference filter at 620 nm). After background subtraction, the percentage degranulation (percent beta-hexosaminidase release) was calculated as 100×(supernatant values)/(supernatant+lysate values), followed by analysis using GraphPad Prism software to calculate an IC50 value for each compound.
The activity ranges are denoted as follows: “+++++” denotes antagonist activity <100 nM; “++++” denotes antagonist activity between 100 and 500 nM; “+++” denotes activity between 501 and 1000 nM; “++” denotes activity between 1001 and 2500 nM; and “+” denotes activity >2500 nM.

[1] = Mouse Pharmacokinetics Studies (50 mg/kg oral gavage, plasma LC-MS/MS); assay type: in vivo; conditions: Male C57BL/6 mice, non-fasted; for AUC(0-t) / Cmax / Tmax: mouse; for Tmax: read-out: PK: Tmax
Protocol: Compounds were formulated in 5% DMSO, 5% Solutol, and 90% PBS without Ca and Mg (pH 7.4) at a concentration of 5 mg/mL. Male C57BL/6 mice (n=3/compound) were administered a 50 mg/kg dose of each compound by oral gavage under a non-fasted condition. Blood samples were collected via the saphenous vein onto K2-EDTA at 0.25, 0.5, 1, 2, 4, 8 and 24 hours after dosing, and plasma was prepared and stored at −80° C. until analysis. Plasma sample preparation for analysis was done by protein precipitation using acetonitrile (including Verapamil as an internal standard) followed by centrifugation. Compound concentrations were determined in extracted plasma using LC-MS/MS relative to a 12-point standard curve covering the 1 to 4000 nM range. Non-compartmental analysis using Phoenix WinNonlin was used to estimate pharmacokinetic parameters including area under the curve, clearance, and half-life. The administered dose was confirmed by analysis of residual dosing material by UPLC-UV relative to a single point calibration sample.

Row | pIC50 (human MRGPRX2) | pIC50 (Human LAD2 cells) | AUC 0-24 [1] [µM·h] | AUC(0-t) [1] [µM·h] | Cmax [1] [µM] | Tmax [1] [h] | SMILES
1 | > 7.00 | > 7.00 | 740 | 740 | 74 | 1.7 | CC(C)(O)Cn1cc(C(=O)N[C@@H]2CCC[C@H](Nc3cc(C(F)(F)F)nc4ccc(Cl)cc34)C2)c(Cl)n1 [Example 31, 3-chloro-N-[(1R,3S)-3-[[6-chloro-2-(trifluoromethyl)-4-quinolyl]amino]cyclohexyl]-1-(2-hydroxy-2-methylpropyl)pyrazole-4-carboxamide]
2 | > 7.00 | > 7.00 | 150 | 150 | 13 | 0.5 | O=C(N[C@@H]1CCC[C@H](Nc2cc(C(F)(F)F)nc3ccc(Cl)cc23)C1)c1cn(CC(F)(F)F)nc1Cl [Example 30, 3-chloro-N-((1R,3S)-3-((6-chloro-2-(trifluoromethyl)quinolin-4-yl)amino)cyclohexyl)-1-(2,2,2-trifluoroethyl)-1H-pyrazole-4-carboxamide]
